The values that follow come from patent US12173042B2, “Methods of treating cancers with CT45 targeted therapies” (The University of Chicago, priority 2016, dated 2024).

Assay type in all cases: cell-based, human
Experiment [1] deals with γH2AX and cleaved caspase-3 in CT45-expressing cancer cells. Kind of experiment: Western blot of γH2AX and cleaved caspase-3. The settings on record: day 5. The protocol:
(§1) Cells were treated with 5 μM carboplatin plus 1.5 nM paxlitaxel for 3 days and then incubated an additional 2 days without drug prior to collection on day 5. Both adherent and non-adherent cells were collected in RIPA buffer (25 mM Tris-HCl pH 7.6, 150 mM NaCl, 1% NP-40, 0.5% sodium deoxycholate, 0.1% SDS) supplemented with protease inhibitor cocktail (Thermo Scientific) and phosphatase inhibitor cocktail (Sigma). Lysates were incubated for 30 min on ice before centrifugation (15 min, 14 000 rpm, 4° C.). The quantity of protein was determined by BCA reagent (Pierce). The extracts were analyzed by SDS-PAGE on a 4-20% gradient gel (Bio-Rad).
as §1, with “indicated drugs” for “5 μM carboplatin plus 1.5 nM paxlitaxel”, “media was changed. On indicated” for “incubated an additional 2 days without drug prior to collection on”, “of collection, both” for “5. Both”, “ice, sonicated and cleared by” for “ice before”

Experiment [2] relates to DNA damage in CT45-expressing cells. Kind of experiment: Comet assay. The note with it: day 5. As for the experimental part: Cells were treated with carboplatin for 3 days and then incubated an additional 2 days without drug. The comet assay was performed on day 5 as previously described39. Briefly, 2.5e4 cells/condition were resuspended in 70 uL 0.5% low melting point agarose (LMPA) at 37 C and plated on a glass slide precoated with 1% agarose in PBS. Samples were allowed to solidify at 4 C for 20 minutes with a square cover glass. The cover class was gently removed and a second 70 uL layer of 0.5% LMPA was applied and again allowed to solidify. The cover glass was removed and the slides immersed in Comet Lysis solution (2.5M NaCl, 100 mM EDTA, 10 mM Tris, 0.015% Triton X-100, pH 10) for one hour at 4 C and from this point forward protected from light. After lysis, the slides were equilibrated for 20 minutes in Comet Electrophoresis Buffer (0.3N NaOH, 1 mM EDTA, […]) at 4 C, and then run at 25V for 20 minutes. […] At least 100 cells were quantified/sample using the software OpenComet40. […]
Cells were treated with carboplatin for 3 days and then incubated an additional 2 days without drug. […] At least 100 cells were quantified/sample using the software OpenComet. […]

For experiment [3], the system named is chromatin of OVCAR5-V5-CT45 and OVCAR5-V5 cells. Kind of experiment: Micrococcal nuclease (MNase) assay. The settings on record: after five days, vector control and CT45 overexpressing cell line. As for the experimental part:
Chromatin relaxation was assayed using the micrococcal nuclease (MNase) assay as previously described, with a few modifications. Briefly, nuclei from 1E6 cells were extracted with 300 μl ice-cold lysis buffer (10 mM Tris-HCl (pH 7.5), 10 mM NaCl, 3 mM MgCl2 and 0.4% IGPAL-CA-630) on ice for 5 min. After centrifugation (2,000 g for 5 min at 4° C.), nuclei were washed two times in lysis buffer and one time in 500 μl digestion buffer (0.32M sucrose, 50 mM Tris-HCl (pH7.5), 4 mM MgCl2, 1 mM CaCl2). Nuclei were then digested in digestion buffer with 50 gel units MNase (NEB) for 9 min at 27° C. in a final volume of 100 μl. The reaction was stopped by adding a final concentration of 1% SDS and 15 mM EGTA. Genomic DNA was purified and separated by gel electrophoresis (1.2% agarose).

Experiment [4] relates to 59M cells. Kind of experiment: Colony assay of carboplatin treated 59M cells with siRNA. The settings on record: cells deficient in PP4 or expressing CT45. From the text:
FIG. 23. Cell deficient in PP4 or expressing the endogenous PP4 inhibitor CT45 are hypersensitive to carboplatin treatment. Shown are colony assay results of carboplatin treated 59M cells transfected with a control siRNA, PP4C siRNA or CT45 siRNA. Colony numbers are normalized to untreated cells of each siRNA.

Each structure is given as a SMILES string. “Also recorded” adds a separate entry of the source.

Take `N.N.O=C([O-])C1(C(=O)[O-])CCC1.[Pt+2]` [carboplatin]: in experiment [1], the “levels of cleaved caspase-3” value is on record as “increased levels” and the “levels of γH2AX” value is given as “increased levels”. The “DNA damage (tail moment)” value in experiment [2] is given as “higher levels of DNA damage; also recorded: more DNA damage”. Moreover, in experiment [3], the chromatin relaxation entry is “induced global chromatin relaxation”. In addition, the “sensitivity of colony formation to carboplatin” value in experiment [4] is “hypersensitive”.
